A short description of the series: Pharmacokinetic study of β-boswellic acid in rabbits with and without Piper longum extract (serum, HPLC-UV). The format is in vivo. Particulars: for AUC(0-t) / AUC(0-inf) / Cmax / Tmax / Vd/F / k el: male, rabbit, serum, po; for AUC(0-t): oral capsule; for Vd/F: read-out: Apparent volume of distribution (Vd/F); for k el: read-out: Ke (converted).
The mark [1] stands for this setting: 20 mg, oral, Control: 20 mg of BA alone.
Where [2] appears, read: Test I: 20 mg of BA + 2.5 mg of PL.
Setting [3] is: Test II: 20 mg of BA + 10 mg of PL.

Read-outs that look alike come from different tables or passages of the source.

With `C[C@H]1[C@H](C)CC[C@]2(C)CC[C@]3(C)C(=CC[C@@H]4[C@@]5(C)CC[C@@H](O)[C@](C)(C(=O)O)[C@@H]5CC[C@]43C)[C@H]12` [β-boswellic acid, 3α-hydroxyurs-12-en-24-oic acid], the AUC(0-t) by setting is: (20 mg, Control: 20 mg of β-boswellic acid (BA) alone) 766 ± 22.8 ng·h/mL; (Test I: 20 mg of BA + 2.5 mg of adjuvant (PL)) 1890 ± 109 ng·h/mL; (Test II: 20 mg of BA + 10 mg of adjuvant (PL)) 2210 ± 115 ng·h/mL. Moreover, the AUC(0-inf) reads like this: under setting [1], 772 ± 22.1 ng·h/mL; under setting [2], 2660 ± 102 ng·h/mL; under setting [3], 2850 ± 251 ng·h/mL. Besides, the concentration under setting [1] peaked (Cmax) at 260 ± 21.3 ng/mL, the Cmax under setting [2] was 321.4 ± 2.7 ng/mL and the Cmax under setting [3] is 359 ± 12 ng/mL. In addition, the Tmax under setting [1] amounted to 2 ± 0.18 h, the Tmax under setting [2] amounted to 2 ± 0.22 h and the Tmax under setting [3] worked out at 3 ± 0.26 h. The Vd/F by setting is: under setting [1], 96 ± 14 L; under setting [2], 43.2 ± 7 L; under setting [3], 67.5 ± 11 L. In addition, the k el by setting is: under setting [1], 0.000131 s⁻¹; under setting [2], 5.24e-05 s⁻¹; under setting [3], 3.07e-05 s⁻¹. Further, the Ka is, setting by setting: (oral, Control: 20 mg of BA alone) 0.6168 ± 0.16 h⁻¹; (oral, Test I: 20 mg of BA + 2.5 mg of PL) 0.740 ± 0.22 h⁻¹; (oral, Test II: 20 mg of BA + 10 mg of PL) 0.6112 ± 0.17 h⁻¹. Besides, the “time of complete elimination from serum” value (oral, β-boswellic acid alone) came to 9 h.

Usually AUC(0-t) stands for exposure summed from dosing to a finite time, without extrapolation to infinity. What is called AUC(0-inf) is total exposure, with the tail of the curve extrapolated. The term Cmax denotes the highest concentration seen after dosing. Broadly, the Tmax is the time from dosing to the highest level.
